From US8829029B2, “Dual modulators of 5HT2A and D3 receptors” (Hoffmann-La Roche Inc., priority 2008, dated 2014)

Tests used:
[1] = target: human 5-HT2A serotonin receptor (Homo sapiens (Human), UniProt P28223); experiment: Radioligand binding ([3H]-ketanserin) to cloned human 5-HT2A receptor expressed in HEK-293 EBNA cells; settings: membranes of transfected HEK-293 EBNA cells, 1.1 nM [3H]-ketanserin, 1 h at RT
How it was run: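 Membranes from transiently transfected HEK-293 EBNA cells incubated 1 h at RT with 1.1 nM [3H]-ketanserin (5-HT2A, 15 μg protein/well, Tris/MgCl2/EGTA pH 7.4) or 0.5 nM [3H]-spiperone (D3, 7.5 μg/well, Tris/NaCl/MgCl2/KCl/CaCl2 pH 7.4) plus test compound at 10 μM-0.1 nM. Nonspecific binding with 10 μM spiperone; filtration, Ki via Cheng-Prusoff.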

[2] = target: human D3 dopamine receptor (Homo sapiens (Human), UniProt P35462); experiment: Radioligand binding ([3H]-spiperone) to cloned human D3 receptor expressed in HEK-293 EBNA cells; settings: membranes of transfected HEK-293 EBNA cells, 0.5 nM [3H]-spiperone, 1 h at RT
How it was run: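 Membranes from HEK-293 EBNA cells transiently transfected with human D3 receptor, incubated 1 h at RT with ~0.5 nM [3H]-spiperone and ten compound concentrations (10 μM-0.1 nM); nonspecific binding with 10 μM spiperone. Filtered, scintillation counted; IC50 from four-parameter fit, Ki via Cheng-Prusoff using saturation Kd.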

Sequence of human D3 dopamine receptor (P35462 whole entry): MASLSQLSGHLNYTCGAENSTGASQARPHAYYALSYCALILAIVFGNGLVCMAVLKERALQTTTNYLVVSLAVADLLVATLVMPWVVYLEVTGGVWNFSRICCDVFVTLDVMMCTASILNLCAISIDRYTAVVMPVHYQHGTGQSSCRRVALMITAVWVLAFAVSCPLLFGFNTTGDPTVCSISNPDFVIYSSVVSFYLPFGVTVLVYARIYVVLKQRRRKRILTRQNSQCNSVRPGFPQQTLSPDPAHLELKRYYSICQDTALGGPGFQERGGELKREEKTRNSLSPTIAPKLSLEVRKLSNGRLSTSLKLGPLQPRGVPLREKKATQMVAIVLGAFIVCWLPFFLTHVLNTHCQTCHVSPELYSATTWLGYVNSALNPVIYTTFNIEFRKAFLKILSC

Compound | Ki [1] [µM] | Ki [2] [µM]
CC1(O)CCC(CC(=O)N[C@H]2CC[C@H](CCN3CCC(c4noc5cc(Cl)ccc45)CC3)CC2)CC1 (stereo partly drawn) [Example 45, N-trans(4-{2-[4-(6-Chloro-benzo[d]isoxazol-3-yl)-piperidin-1-yl]-ethyl}-cyclohexyl)-2-(4-hydroxy-4-methyl-cyclohexyl)-acetamide] | 0.015 | 0.007
CC1(C)OC[C@H](CC(=O)N[C@H]2CC[C@H](CCN3CCC(c4noc5cc(Cl)ccc45)CC3)CC2)O1 [Example 40, N-trans (4-{2-[4-(6-Chloro-benzo[d]isoxazol-3-yl)-piperidin-1-yl]-ethyl}-cyclohexyl)-2-((S)-2,2-dimethyl-[1,3]dioxolan-4-yl)-acetamide] | 0.025 | 0.006
CN(C)c1ccc(C(=O)N[C@H]2CC[C@H](CCN3CCC(c4noc5cc(F)ccc45)CC3)CC2)cc1 [Example 6, 4-Dimethylamino-N-trans (4-{2-[4-(6-fluoro-benzo[d]isoxazol-3-yl)-piperidin-1-yl]-ethyl}-cyclohexyl)-benzamide] | 0.0114 | 0.0115
CO[C@@H](C)CC(=O)N[C@H]1CC[C@H](CCN2CCC(c3noc4cc(Cl)ccc34)CC2)CC1 [Example 43B, (S)—N-(4-{2-[4-(6-Chloro-benzo[d]isoxazol-3-yl)-piperidin-1-yl]-ethyl}-cyclohexyl)-3-methoxy-butyramide] | 0.016 | 0.006
CO[C@H](C)CC(=O)N[C@H]1CC[C@H](CCN2CCC(c3noc4cc(Cl)ccc34)CC2)CC1 [Example 43A, (R)—N-trans(4-{2-[4-(6-Chloro-benzo[d]isoxazol-3-yl)-piperidin-1-yl]-ethyl}-cyclohexyl)-3-methoxy-butyramide] | 0.016 | 0.015
O=S(=O)(N[C@H]1CC[C@H](CCN2CCC(c3noc4cc(F)ccc34)CC2)CC1)c1ccc(Cl)cc1 [Example 48, 4-Chloro-N-trans (4-{2-[4-(6-fluoro-benzo[d]isoxazol-3-yl)-piperidin-1-yl]-ethyl}-cyclohexyl)-benzenesulfonamide] | 0.00513 | 0.00587
O=C(C[C@H]1CCCO1)N[C@H]1CC[C@H](CCN2CCC(c3noc4cc(Cl)ccc34)CC2)CC1 [Example 53, N-trans-(4-{2-[4-(6-Chloro-benzo[d]isoxazol-3-yl)-piperidin-1-yl]-ethyl}-cyclohexyl)-2-(R)-tetrahydro-furan-2-yl-acetamide] | 0.00619 | 0.0144
O=C(N[C@H]1CC[C@H](CCN2CCC(c3noc4cc(F)ccc34)CC2)CC1)c1ccc(N2CCOCC2)nc1 [Example 4A, N-Trans (4-{2-[4-(6-Fluoro-benzo[d]isoxazol-3-yl)-piperidin-1-yl]-ethyl}-cyclohexyl)-6-morpholin-4-yl-nicotinamide] | 0.0027 | 0.00795
COCCC(=O)N[C@H]1CC[C@H](CCN2CCC(c3noc4cc(Cl)c(F)cc34)CC2)CC1 [Example 60, N-trans-(4-{2-[4-(6-Chloro-5-fluoro-benzo[d]isoxazol-3-yl)-piperidin-1-yl]-ethyl}-cyclohexyl)-3-methoxy-propionamide] | 0.044 | 0.0135
C[C@@H](O)CC(=O)N[C@H]1CC[C@H](CCN2CCC(c3noc4cc(Cl)ccc34)CC2)CC1 [Example 39, (R)-N-trans (4-{2-[4-(6-Chloro-benzo[d]isoxazol-3-yl)-piperidin-1-yl]-ethyl}-cyclohexyl)-3-hydroxy-butyramide] | 0.013 | 0.017
COc1ccc(S(=O)(=O)N[C@H]2CC[C@H](CCN3CCC(c4noc5cc(F)ccc45)CC3)CC2)cc1 [Example 49, N-trans(4-{2-[4-(6-Fluoro-benzo[d]isoxazol-3-yl)-piperidin-1-yl]-ethyl}-cyclohexyl)-4-methoxy-benzenesulfonamide] | 0.00439 | 0.00372
O=C(N[C@H]1CC[C@H](CCN2CCC(c3noc4ccc(F)cc34)CC2)CC1)c1ccc(N2CCOCC2)cc1 [Example 25, N-trans(4-{2-[4-(5-Fluoro-benzo[d]isoxazol-3-yl)-piperidin-1-yl]-ethyl}-cyclohexyl)-4-morpholin-4-yl-benzamide] | 0.0223 | 0.00904
COCCC(=O)N[C@H]1CC[C@H](CCN2CCC(c3noc4cc(F)c(F)cc34)CC2)CC1 [Example 65, N-trans-(4-{2-[4-(5,6-Difluoro-benzo[d]isoxazol-3-yl)-piperidin-1-yl]-ethyl}-cyclohexyl)-3-methoxy-propionamide] | 0.0129 | 0.0114
O=C(CC1OCCCO1)N[C@H]1CC[C@H](CCN2CCC(c3noc4cc(Cl)ccc34)CC2)CC1 [Example 57, N-trans-(4-{2-[4-(6-Chloro-benzo[d]isoxazol-3-yl)-piperidin-1-yl]-ethyl}-cyclohexyl)-2-[1,3]dioxan-2-yl-acetamide] | 0.0176 | 0.00613
O=C(C[C@@H]1CC[C@@H](O)C1)N[C@H]1CC[C@H](CCN2CCC(c3noc4cc(F)c(F)cc34)CC2)CC1 [Example 70, N-trans-(4-{2-[4-(5,6-Difluoro-benzo[d]isoxazol-3-yl)-piperidin-1-yl]-ethyl}-cyclohexyl)-2-((1R,3R)-3-hydroxy-cyclopentyl)-acetamide] | 0.0114 | 0.0198
O=C(CC(F)(F)F)N[C@H]1CC[C@H](CCN2CCC(c3noc4cc(F)ccc34)CC2)CC1 [Example 20, 3,3,3-Trifluoro-N-trans (4-{2-[4-(6-fluoro-benzo[d]isoxazol-3-yl)-piperidin-1-yl]-ethyl}-cyclohexyl)-propionamide] | 0.00278 | 0.00519
COCCC(=O)N[C@H]1CC[C@H](CCN2CCC(c3noc4cc(Cl)ccc34)CC2)CC1 [Example 32, N-trans(4-{2-[4-(6-Chloro-benzo[d]isoxazol-3-yl)-piperidin-1-yl]-ethyl}-cyclohexyl)-3-methoxy-propionamide] | 0.0165 | 0.0085
CS(=O)(=O)N[C@H]1CC[C@H](CCN2CCC(c3noc4ccc(F)cc34)CC2)CC1 [Example 59, N-trans-(4-{2-[4-(5-Fluoro-benzo[d]isoxazol-3-yl)-piperidin-1-yl]-ethyl}-cyclohexyl)-methanesulfonamide] | 0.0275 | 0.00798
O=C(CC1CCCO1)N[C@H]1CC[C@H](CCN2CCC(c3noc4cc(Cl)ccc34)CC2)CC1 (stereo partly drawn) [Example 38, N-trans-(4-{2-[4-(6-Chloro-benzo[d]isoxazol-3-yl)-piperidin-1-yl]-ethyl}-cyclohexyl)-2-(tetrahydro-furan-2-yl)-acetamide] | 0.013 | 0.009
O=C(N[C@H]1CC[C@H](CCN2CCC(c3noc4cc(F)ccc34)CC2)CC1)c1ccc(-n2cccc2)cc1 [Example 17, N-trans(4-{2-[4-(6-Fluoro-benzo[d]isoxazol-3-yl)-piperidin-1-yl]-ethyl}-cyclohexyl)-4-pyrrol-1-yl-benzamide] | 0.00245 | 0.00261
O=C(N[C@H]1CC[C@H](CCN2CCC(c3noc4cc(F)c(F)cc34)CC2)CC1)C1CCOCC1 [Example 71, Tetrahydro-pyran-4-carboxylic acid trans-(4-{2-[4-(5,6-difluoro-benzo[d]isoxazol-3-yl)-piperidin-1-yl]-ethyl}-cyclohexyl)-amide] | 0.00786 | 0.0182
O=C(C[C@H]1CC[C@H](O)CC1)N[C@H]1CC[C@H](CCN2CCC(c3noc4cc(F)c(F)cc34)CC2)CC1 [Example 69, N-trans-(4-{2-[4-(5,6-Difluoro-benzo[d]isoxazol-3-yl)-piperidin-1-yl]-ethyl}-cyclohexyl)-2-(4-hydroxy-cyclohexyl)-acetamide] | 0.00785 | 0.0209
COc1ccc(C(=O)N[C@H]2CC[C@H](CCN3CCC(c4noc5cc(F)ccc45)CC3)CC2)cc1 [Example 8, N-trans-(4-{2-[4-(6-Fluoro-benzo[d]isoxazol-3-yl)-piperidin-1-yl]-ethyl}-cyclohexyl)-4-methoxy-benzamide] | 0.00365 | 0.00453
N#CCC(=O)N[C@H]1CC[C@H](CCN2CCC(c3noc4cc(Cl)ccc34)CC2)CC1 [Example 51, N-trans-(4-{2-[4-(6-Chloro-benzo[d]isoxazol-3-yl)-piperidin-1-yl]-ethyl}-cyclohexyl)-2-cyano-acetamide] | 0.0237 | 0.00819
CCS(=O)(=O)N[C@H]1CC[C@H](CCN2CCC(c3noc4cc(F)ccc34)CC2)CC1 [Example 47, Ethanesulfonic acid (4-trans {2-[4-(6-fluoro-benzo[d]isoxazol-3-yl)-piperidin-1-yl]-ethyl}-cyclohexyl)-amide] | 0.00166 | 0.00585
COCC(=O)N[C@H]1CC[C@H](CCN2CCC(c3noc4cc(F)c(F)cc34)CC2)CC1 [Example 62, N-trans-(4-{2-[4-(5,6-Difluoro-benzo[d]isoxazol-3-yl)-piperidin-1-yl]-ethyl}-cyclohexyl)-2-methoxy-acetamide] | 0.0105 | 0.0327
CS(=O)(=O)CC(=O)N[C@H]1CC[C@H](CCN2CCC(c3noc4cc(Cl)ccc34)CC2)CC1 [Example 56, N-trans-(4-{2-[4-(6-Chloro-benzo[d]isoxazol-3-yl)-piperidin-1-yl]-ethyl}-cyclohexyl)-2-methanesulfonyl-acetamide] | 0.0152 | 0.0148
O=C(N[C@H]1CC[C@H](CCN2CCC(c3noc4ccc(F)cc34)CC2)CC1)c1ccc(N2CCS(=O)(=O)CC2)cc1 [Example 29, 4-(1,1-Dioxo-1,6,4-thiomorpholin-4-yl)-N trans-(4-{2-[4-(5-fluoro-benzo[d]isoxazol-3-yl)-piperidin-1-yl]-ethyl}-cyclohexyl)-benzamide] | 0.0124 | 0.00594
